# Experimental data as given in ChEMBL document CHEMBL1201862, “PubChem BioAssay data set” (2004).
# Structures can show the parent of a compound that is named as a salt. The source made the active and inactive calls.
# Experiments:
# [1] = molecular target: Luciferin 4-monooxygenase (Photinus pyralis, UniProt P08659); experiment: inhibition of purified Photinus pyralis luciferase – biochemical, luminescence, dose response (AID 1891)
# [2] = Luminescence Cell-Based Dose Confirmation HTS to Identify Inhibitors of Platelet Dense Granule Release. [Related pubchem assays: 1663 (Primary HTS), 1678 (Summary of Project)]; type: functional
# Cytochrome P450 2C19 = Cytochrome P450 2C19 (Homo sapiens, UniProt P33261); experiment: Cytochrome panel assay with activity outcomes. Panel member name: p450-cyp2c19 Compounds with AC50 equal or less than 10 uM are considered active; type: functional; conditions: read-out: AC50
# Cytochrome P450 2D6 = Cytochrome P450 2D6 (Homo sapiens, UniProt P10635);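 note: CYP2D6 member of a cytochrome P450 panel assay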
# Cytochrome P450 3A4 = Cytochrome P450 3A4 (Homo sapiens, UniProt P08684);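 note: CYP3A4 tested as one member of a cytochrome P450 panel screen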
# Cytochrome P450 2C9 = Cytochrome P450 2C9 (Homo sapiens, UniProt P11712)
# [3] = molecular target: T1, Corticotropin-releasing factor receptor 2/Corticotropin-releasing factor-binding protein (Homo sapiens, UniProt P24387+Q13324); experiment: activators of CRF receptor 2 with binding protein – uHTS hits, confirmation (AID 602473); type: functional; conditions: read-out: EC50_Mean
# T1 sequence (Q13324 whole entry): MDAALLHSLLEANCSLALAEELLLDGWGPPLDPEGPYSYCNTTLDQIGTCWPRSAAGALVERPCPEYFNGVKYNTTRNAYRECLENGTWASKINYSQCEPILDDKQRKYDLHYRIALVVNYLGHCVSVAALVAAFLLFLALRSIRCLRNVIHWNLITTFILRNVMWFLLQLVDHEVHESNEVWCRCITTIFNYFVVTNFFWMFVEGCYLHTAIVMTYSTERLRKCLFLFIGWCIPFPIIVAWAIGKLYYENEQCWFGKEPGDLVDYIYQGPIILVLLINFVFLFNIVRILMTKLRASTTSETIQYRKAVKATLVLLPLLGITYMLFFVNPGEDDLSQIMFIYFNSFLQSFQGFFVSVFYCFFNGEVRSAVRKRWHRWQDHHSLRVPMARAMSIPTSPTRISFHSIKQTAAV
# T1 sequence (P24387 whole entry): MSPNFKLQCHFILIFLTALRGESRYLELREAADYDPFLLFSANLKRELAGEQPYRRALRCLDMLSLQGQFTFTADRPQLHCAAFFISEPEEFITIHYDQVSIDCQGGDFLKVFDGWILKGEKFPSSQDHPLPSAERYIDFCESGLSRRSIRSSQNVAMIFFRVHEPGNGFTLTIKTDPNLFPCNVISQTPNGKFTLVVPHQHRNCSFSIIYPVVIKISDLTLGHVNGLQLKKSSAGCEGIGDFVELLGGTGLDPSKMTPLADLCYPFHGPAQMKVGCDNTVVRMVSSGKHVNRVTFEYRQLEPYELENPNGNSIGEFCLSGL
# [4] = NIH-3T3 fibroblast cytotoxicity, dose response, cytotoxicity control, cell-based, fluorescence, Alamar Blue, secondary assay (AID 2327); type: functional;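 note: NIH-3T3 mouse fibroblasts cultured with fluconazole at 8 µg/mL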
# [5] = fluconazole-exposed Candida albicans growth modulators – fluorescence, retest, confirmation (AID 2467); type: functional, cell-based
# [6] = test system: Streptococcus sp. 'group A'; experiment: Streptococcus pyogenes SK(-)GAS viability under kanamycin – luminescence, BacTiterGlo, confirmation, counter-screen for streptokinase expression inhibitor project, dose response (AID 1900); type: functional, organism-based
# Streptokinase A = molecular target: T2, Streptokinase A (Streptococcus pyogenes serotype M1, UniProt P10520); experiment: viability-normalized secreted streptokinase activity reduction – plasminogen activation absorbance, OD405, dose response (AID 1914); type: functional, Streptococcus pyogenes M1 GAS;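 note: secreted streptokinase activity via plasminogen activation per viability signal from cell pellet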
# T2 sequence (P10520 whole entry): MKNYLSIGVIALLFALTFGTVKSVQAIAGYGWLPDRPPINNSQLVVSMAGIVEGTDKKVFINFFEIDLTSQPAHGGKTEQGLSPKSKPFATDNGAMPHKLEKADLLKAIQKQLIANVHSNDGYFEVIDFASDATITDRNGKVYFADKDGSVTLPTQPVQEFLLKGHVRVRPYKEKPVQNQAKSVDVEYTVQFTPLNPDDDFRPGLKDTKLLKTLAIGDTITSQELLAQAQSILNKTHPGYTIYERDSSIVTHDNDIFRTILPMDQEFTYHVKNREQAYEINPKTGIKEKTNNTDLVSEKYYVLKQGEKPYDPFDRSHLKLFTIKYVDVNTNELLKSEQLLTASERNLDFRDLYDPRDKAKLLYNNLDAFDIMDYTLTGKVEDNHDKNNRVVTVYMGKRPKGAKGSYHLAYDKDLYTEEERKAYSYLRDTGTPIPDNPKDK
# Streptococcus = experiment: GAS UMAA2166 growth inhibition – luminescence, BacTiterGlo, counter-screen for streptokinase expression inhibitor project, dose response (AID 1915); type: functional, organism-based;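 note: potency for reduction of bacterial viability or growth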
# [7] = luciferase reporter signal suppression in cells – H4 neuroglioma cells, luminescence, dose response (AID 1990); type: functional, cell-based
# [8] = alpha-synuclein stem-loop luciferase translation blockers – H4 neuroglioma cells, luminescence, confirmation (AID 1988); type: functional, cell-based
# Cytochrome P450 1A2 = molecular target: T3, Cytochrome P450 1A2 (Homo sapiens, UniProt P05177);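 note: PubChem cytochrome P450 panel assay, CYP1A2 panel member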
# T3 sequence (P05177 whole entry): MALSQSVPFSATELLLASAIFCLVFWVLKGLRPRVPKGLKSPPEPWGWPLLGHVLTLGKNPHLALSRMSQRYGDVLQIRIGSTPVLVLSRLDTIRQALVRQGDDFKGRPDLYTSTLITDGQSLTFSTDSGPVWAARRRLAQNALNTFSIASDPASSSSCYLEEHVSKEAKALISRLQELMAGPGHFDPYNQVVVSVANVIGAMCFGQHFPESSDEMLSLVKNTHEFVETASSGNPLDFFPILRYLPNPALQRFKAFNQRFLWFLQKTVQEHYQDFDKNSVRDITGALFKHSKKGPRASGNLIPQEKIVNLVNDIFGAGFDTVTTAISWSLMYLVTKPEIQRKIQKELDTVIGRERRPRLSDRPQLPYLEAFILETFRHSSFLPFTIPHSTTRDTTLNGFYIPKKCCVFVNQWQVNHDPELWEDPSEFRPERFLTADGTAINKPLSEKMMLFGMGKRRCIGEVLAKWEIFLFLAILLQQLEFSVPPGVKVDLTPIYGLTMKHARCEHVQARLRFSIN
# [9] = molecular target: T4, RNA-binding protein pos-1 (Caenorhabditis elegans, UniProt G5EF15); experiment: disruptors of C. elegans POS-1 RNA interaction – biochemical, fluorescence polarization, dose response (AID 1964);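 note: purified POS-1 fused to maltose binding protein made in E. coli; potency of compounds blocking POS-1 binding to fluorescent RNA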
# T4 sequence (G5EF15 whole entry): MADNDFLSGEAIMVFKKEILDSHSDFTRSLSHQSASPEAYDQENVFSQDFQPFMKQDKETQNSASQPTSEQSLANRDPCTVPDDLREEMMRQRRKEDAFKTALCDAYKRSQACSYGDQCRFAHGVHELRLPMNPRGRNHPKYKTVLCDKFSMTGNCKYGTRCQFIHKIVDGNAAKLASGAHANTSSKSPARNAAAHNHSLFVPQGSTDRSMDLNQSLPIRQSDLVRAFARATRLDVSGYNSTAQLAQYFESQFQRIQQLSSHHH
# [10] = molecular target: T5, Zinc finger protein mex-5 (Caenorhabditis elegans, UniProt Q9XUB2); experiment: potency of MEX-5 RNA-binding blockers – biochemical, C. elegans, fluorescence polarization, dose response (AID 1960)
# T5 sequence (Q9XUB2 whole entry): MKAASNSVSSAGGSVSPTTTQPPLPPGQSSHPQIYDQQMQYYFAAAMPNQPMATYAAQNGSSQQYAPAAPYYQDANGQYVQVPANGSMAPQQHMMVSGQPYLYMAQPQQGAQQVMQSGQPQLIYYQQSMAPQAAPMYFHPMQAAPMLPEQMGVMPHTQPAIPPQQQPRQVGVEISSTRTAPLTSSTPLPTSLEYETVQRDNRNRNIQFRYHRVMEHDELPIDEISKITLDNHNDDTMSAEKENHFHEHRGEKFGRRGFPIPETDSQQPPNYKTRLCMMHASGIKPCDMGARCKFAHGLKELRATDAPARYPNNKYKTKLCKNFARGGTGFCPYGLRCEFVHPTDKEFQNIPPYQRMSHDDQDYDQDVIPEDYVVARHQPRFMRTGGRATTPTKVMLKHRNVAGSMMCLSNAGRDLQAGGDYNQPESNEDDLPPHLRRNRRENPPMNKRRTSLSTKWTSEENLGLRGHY
# Cytochrome P450 3A4, sequence (P08684 whole entry): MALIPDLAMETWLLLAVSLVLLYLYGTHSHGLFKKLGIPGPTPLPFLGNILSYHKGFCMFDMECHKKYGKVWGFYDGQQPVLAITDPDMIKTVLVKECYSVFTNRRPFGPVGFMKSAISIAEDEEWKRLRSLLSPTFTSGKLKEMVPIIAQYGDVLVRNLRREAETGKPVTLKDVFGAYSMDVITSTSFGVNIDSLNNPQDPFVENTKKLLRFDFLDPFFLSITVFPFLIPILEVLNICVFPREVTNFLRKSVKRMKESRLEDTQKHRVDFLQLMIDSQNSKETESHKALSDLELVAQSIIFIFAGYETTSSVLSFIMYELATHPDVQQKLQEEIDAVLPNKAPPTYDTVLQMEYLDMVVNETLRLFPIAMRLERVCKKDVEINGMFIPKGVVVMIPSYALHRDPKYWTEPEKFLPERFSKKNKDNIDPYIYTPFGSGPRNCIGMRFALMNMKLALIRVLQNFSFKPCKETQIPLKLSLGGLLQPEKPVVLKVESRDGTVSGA
# Cytochrome P450 2C19, sequence (P33261 whole entry): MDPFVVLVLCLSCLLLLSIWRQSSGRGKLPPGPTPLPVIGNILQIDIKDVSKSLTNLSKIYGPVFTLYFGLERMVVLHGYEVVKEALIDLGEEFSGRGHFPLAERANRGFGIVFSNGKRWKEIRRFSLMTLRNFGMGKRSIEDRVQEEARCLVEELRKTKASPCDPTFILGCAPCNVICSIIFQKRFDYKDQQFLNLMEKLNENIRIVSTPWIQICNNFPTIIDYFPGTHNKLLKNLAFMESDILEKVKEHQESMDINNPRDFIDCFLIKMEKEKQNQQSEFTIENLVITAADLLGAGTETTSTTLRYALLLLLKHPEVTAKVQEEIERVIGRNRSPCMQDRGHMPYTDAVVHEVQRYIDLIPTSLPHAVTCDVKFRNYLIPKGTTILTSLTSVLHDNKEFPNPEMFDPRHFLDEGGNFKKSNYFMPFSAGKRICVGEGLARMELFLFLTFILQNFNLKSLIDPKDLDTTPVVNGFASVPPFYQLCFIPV
# Cytochrome P450 2C9, sequence (P11712 whole entry): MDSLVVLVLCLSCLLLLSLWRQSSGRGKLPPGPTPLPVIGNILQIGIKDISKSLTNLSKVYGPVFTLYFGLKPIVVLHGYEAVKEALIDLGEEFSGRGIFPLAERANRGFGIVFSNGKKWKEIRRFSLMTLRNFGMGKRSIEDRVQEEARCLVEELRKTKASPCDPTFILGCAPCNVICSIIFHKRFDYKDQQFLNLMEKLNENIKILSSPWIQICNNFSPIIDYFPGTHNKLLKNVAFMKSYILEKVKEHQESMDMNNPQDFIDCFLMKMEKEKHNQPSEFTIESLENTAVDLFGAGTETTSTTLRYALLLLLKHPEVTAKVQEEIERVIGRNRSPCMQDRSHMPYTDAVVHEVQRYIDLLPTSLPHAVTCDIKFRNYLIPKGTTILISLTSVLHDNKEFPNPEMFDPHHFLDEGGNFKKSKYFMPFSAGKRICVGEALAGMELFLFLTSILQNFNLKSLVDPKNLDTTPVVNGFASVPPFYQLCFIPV
# Luciferin 4-monooxygenase, sequence (P08659 whole entry): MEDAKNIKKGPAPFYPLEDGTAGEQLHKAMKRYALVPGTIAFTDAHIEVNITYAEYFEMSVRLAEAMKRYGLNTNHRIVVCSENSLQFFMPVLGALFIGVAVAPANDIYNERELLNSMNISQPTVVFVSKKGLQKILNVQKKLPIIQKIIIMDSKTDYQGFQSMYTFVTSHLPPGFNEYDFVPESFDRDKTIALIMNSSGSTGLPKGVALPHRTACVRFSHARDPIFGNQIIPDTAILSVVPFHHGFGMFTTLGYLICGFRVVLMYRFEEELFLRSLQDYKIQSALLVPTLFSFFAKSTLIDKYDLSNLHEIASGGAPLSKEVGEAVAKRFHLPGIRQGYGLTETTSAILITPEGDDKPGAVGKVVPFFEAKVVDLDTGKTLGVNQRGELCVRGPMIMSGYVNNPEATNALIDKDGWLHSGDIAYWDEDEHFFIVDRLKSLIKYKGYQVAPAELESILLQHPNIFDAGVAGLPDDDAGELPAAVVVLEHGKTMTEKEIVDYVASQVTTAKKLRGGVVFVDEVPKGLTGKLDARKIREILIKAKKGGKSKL
# Cytochrome P450 2D6, sequence (P10635 whole entry): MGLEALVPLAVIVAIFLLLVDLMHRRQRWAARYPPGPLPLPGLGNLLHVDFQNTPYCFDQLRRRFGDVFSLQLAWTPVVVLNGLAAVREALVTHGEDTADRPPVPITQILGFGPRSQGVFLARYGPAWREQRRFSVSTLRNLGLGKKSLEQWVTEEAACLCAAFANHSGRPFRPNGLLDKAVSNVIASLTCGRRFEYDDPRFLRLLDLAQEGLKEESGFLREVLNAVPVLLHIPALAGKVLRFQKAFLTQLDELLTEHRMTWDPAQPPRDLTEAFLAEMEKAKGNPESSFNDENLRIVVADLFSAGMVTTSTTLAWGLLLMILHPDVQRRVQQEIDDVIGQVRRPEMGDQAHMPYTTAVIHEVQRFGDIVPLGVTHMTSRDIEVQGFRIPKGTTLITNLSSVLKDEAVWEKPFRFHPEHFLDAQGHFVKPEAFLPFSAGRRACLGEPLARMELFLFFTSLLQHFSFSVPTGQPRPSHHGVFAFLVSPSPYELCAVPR
smiles,measurement,setting,value
O=C(Nc1nnc(-c2cccnc2)s1)c1cccs1,EC50,[1],22.6 µM (active)
same,EC50,[2],> 112 µM (not active)
O=C(c1ccc(S(=O)(=O)Nc2ccccc2)cc1)N1CCCCCCC1,EC50,[1],> 112 µM (not active)
same,EC50,[2],> 112 µM (not active)
O=C(CSc1nnc(-c2cccs2)n1-c1ccccc1)N1CCCC1,AC50,Cytochrome P450 2C19,28.2 µM (inconclusive)
same,AC50,Cytochrome P450 2D6,7.94 µM (inconclusive)
same,AC50,Cytochrome P450 3A4,28.2 µM (inconclusive)
same,AC50,Cytochrome P450 2C9,12.6 µM (inconclusive)
O=C(COC(=O)CC(c1ccccc1)c1ccccc1)NCc1ccc(Cl)cc1,EC50,[3],> 53 µM (inactive)
N#CC(c1ccc(Cl)cc1)N1CCOCC1 (stereo unspecified),EC50,[1],> 112 µM (not active)
same,EC50,[2],> 112 µM (not active)
CC(C)(C)c1ccc(C(=O)NNc2ccc(F)cc2F)cc1,EC50,[4],32.2 µM (active)
same,EC50,[5],> 38 µM (not active)
COc1ccc(CNCCNC(=O)c2ccco2)c(OC)c1OC,EC50,[4],> 160 µM (inactive)
same,EC50,[5],> 38 µM (not active)
CCOC(=O)Cc1csc(NC(=O)CSc2nnc(-c3ccc(NS(=O)(=O)CC)cc3)o2)n1,EC50,[4],> 150 µM (inactive)
same,EC50,[5],> 38 µM (not active)
CC(=O)NNC(=S)NC(=O)C(c1ccccc1)c1ccccc1,EC50,[4],> 150 µM (inactive)
same,EC50,[6],3.24 µM (active)
same,EC50,Streptokinase A,> 150 µM (not active)
same,EC50,[5],1.52 µM (active)
same,EC50,Streptococcus,10.4 µM (active)
Nc1ccn([C@@H]2O[C@H](CO)[C@@H](O)[C@@H]2O)c(=O)n1 [CYTARABINE HYDROCHLORIDE],EC50,[7],< 0.1 µM (active)
same,EC50,[8],< 0.1 µM (active)
COc1ccc(OC)c2nc(O)c(CCNS(=O)(=O)c3ccccc3)cc12,AC50,Cytochrome P450 2C19,3.16 µM (inconclusive)
same,AC50,Cytochrome P450 3A4,14.1 µM (inconclusive)
same,AC50,Cytochrome P450 2C9,14.1 µM (inconclusive)
COc1cc(C(=O)Nc2ccc(-c3nnc(-c4ccco4)o3)cc2)cc(OC)c1OC,AC50,Cytochrome P450 2C19,6.31 µM (inconclusive)
same,AC50,Cytochrome P450 2C9,7.94 µM (inconclusive)
Cc1ccc(C(=O)NC(=S)NNC(=O)c2cccc([N+](=O)[O-])c2)cc1,EC50,[6],1.53 µM (active)
same,EC50,Streptokinase A,> 150 µM (not active)
same,EC50,Streptococcus,21.7 µM (active)
same,EC50,[3],2.89 µM (active)
CCCCNCCOCCSc1ccc(Cl)cc1,AC50,Cytochrome P450 2C19,17.8 µM (inconclusive)
same,AC50,Cytochrome P450 3A4,14.1 µM (inconclusive)
COc1cccc(Cn2c(=O)c(-c3ccccc3)nc3cnc(OC)nc32)c1,AC50,Cytochrome P450 2C19,39.8 µM (inconclusive)
same,AC50,Cytochrome P450 2D6,39.8 µM (inconclusive)
same,AC50,Cytochrome P450 1A2,15.8 µM (inconclusive)
O=C(COC(=O)c1[nH]nc2ccccc12)Nc1cccc(S(=O)(=O)N2CCOCC2)c1,EC50,[2],> 112 µM (not active)
COc1ccc(/N=C/c2c(O)c3ccccc3n2C(C)=O)cc1,EC50,[9],> 300 µM (inconclusive)
same,EC50,[10],> 300 µM (inconclusive)
same,EC50,[3],6.35 µM (active)
CCC(=O)Nc1ccc(C(=O)NNC(=O)c2cccs2)cc1,AC50,Cytochrome P450 2C19,0.891 µM (inconclusive)
COc1ccccc1-c1ccc2ncnc(N3CCN(C)CC3)c2c1,AC50,Cytochrome P450 2C19,15.8 µM (inconclusive)
same,AC50,Cytochrome P450 2D6,39.8 µM (inconclusive)
Cc1ccc(C(=O)Nc2ccc(C)c(S(=O)(=O)N3CCOCC3)c2)c(C)c1,EC50,[1],> 112 µM (not active)
same,EC50,[2],> 112 µM (not active)
COc1ccc(C(C)NC(=O)c2ccccc2Cl)cc1OC (stereo unspecified),EC50,[1],> 112 µM (not active)
same,EC50,[2],> 112 µM (not active)
Cc1ccc(C)c(NC(S)=NNC(=O)c2csc3c2CCC(C)C3)c1 (stereo unspecified),EC50,[4],> 150 µM (inactive)
same,EC50,[5],3.32 µM (active)
COc1cc(OC)c(/C=C2/C(=O)Nc3ccccc32)c(OC)c1,AC50,Cytochrome P450 2C19,31.6 µM (inconclusive)
Brc1ccc(-c2nc(N/N=C/c3cccnc3)c3ccccc3n2)cc1,EC50,[1],0.248 µM (active)
same,EC50,[2],0.407 µM (active)
CCCC[C@@H]1C[C@H]1C(NC(=O)c1cccs1)c1ccc(-c2ccccc2)cc1 (stereo partly specified),AC50,Cytochrome P450 2C19,3.16 µM (inconclusive)
same,AC50,Cytochrome P450 1A2,2 µM (inconclusive)
same,AC50,Cytochrome P450 3A4,6.31 µM (inconclusive)
CC(C)NS(=O)(=O)c1ccc(NC(=O)C(C)Oc2ccc(C(=O)c3ccccc3)cc2)cc1 (stereo unspecified),EC50,[3],4.6 µM (active)
OCCN1CCN(CCC=C2c3ccccc3Sc3ccc(Cl)cc32)CC1 [ZUCLOPENTHIXOL],AC50,Cytochrome P450 2C19,2.51 µM (inconclusive)
same,AC50,Cytochrome P450 2D6,10 µM (inconclusive)
same,AC50,Cytochrome P450 3A4,12.6 µM (inconclusive)
O=C(O)/C=C\C(=O)NCc1ccccc1,AC50,Cytochrome P450 2C19,0.0158 µM (inconclusive)
same,AC50,Cytochrome P450 2D6,0.794 µM (inconclusive)
C/C(=N/OC(=O)c1ccc(C)cc1)c1cccs1,EC50,[1],1.22 µM (active)
same,EC50,[2],5.14 µM (active)
COc1ccnc(Oc2cccc(C(F)(F)F)c2)c1C(=O)N=CNOCc1ccccc1F,EC50,[4],> 150 µM (inactive)
same,EC50,[5],> 38 µM (not active)
CCCS(=O)(=O)N1CCCC(C(=O)NCC2CCCO2)C1 (stereo unspecified),AC50,Cytochrome P450 2C19,39.8 µM (inconclusive)
same,AC50,Cytochrome P450 2C9,8.91 µM (inconclusive)
CCC/C=C(\CCC)C(NC(=O)c1ccc(C(=O)OC)cc1)c1ccc(C(=O)OC)cc1 (stereo unspecified),AC50,Cytochrome P450 2C19,10 µM (inconclusive)
same,AC50,Cytochrome P450 2D6,25.1 µM (inconclusive)
